Drawing on ChEMBL document CHEMBL1142730, “Design of HIV-1 protease inhibitors active on multidrug-resistant virus” (J Med Chem, 2005), this text covers Kd for one molecule.

The target in the test is Human immunodeficiency virus type 1 protease (Human immunodeficiency virus 1, UniProt Q72874). The test is described as follows: Binding affinity against HIV-1 protease.

For orientation: pKd means −log10 of the Kd, conventionally taken in molar units. Lower therefore signals a high Kd.

pKd: −log10 of the molar value.

As for `CC(C)CN(CC(O)C(Cc1ccccc1)NC(=O)OC1CCOC1)S(=O)(=O)c1ccc(N)cc1` (stereo unspecified), the pKd is 9.40.
